Results on eight compounds are retold here after ChEMBL document CHEMBL4177738, “Synthesis and evaluation of a class of 1,4,7-triazacyclononane derivatives as iron depletion antitumor agents” (Bioorg Med Chem Lett, 2018).

Series [1] concerns HepG2. The experiment in a line: Antiproliferative activity against human HepG2 cells assessed as reduction in cell viability at 50 uM incubated for 72 hrs in presence of 50 uM iron chloride by MTT assay. Format: functional, cell-based.
The test system of series [2] is HepG2. The experiment in a line: Antiproliferative activity against human HepG2 cells assessed as reduction in cell viability incubated for 72 hrs by MTT assay. Format: functional, cell-based. To be noted: HepG2, 72 h.
For series [3], the system named is L02. The experiment in a line: Increase in cell viability in human LO2 cells at 50 uM incubated for 72 hrs by MTT assay relative to untreated control. The series is classed as functional.
Series [4] relates to HepG2. The experiment in a line: Antiproliferative activity against human HepG2 cells assessed as reduction in cell viability at 50 uM incubated for 72 hrs by MTT assay. To be noted: HepG2, 72 h. The series is classed as functional.
Series [5] has as its system L02. The experiment in a line: Antiproliferative activity against human LO2 cells assessed as reduction in cell viability at 50 uM incubated for 72 hrs by MTT assay. The series is classed as cell-based. To be noted: l02, 72 h.

Structures are written as SMILES. pIC50: −log10 of the molar value. The source made the active and inactive calls. The rule behind the calls is not given here.

Regarding `O=C(O)CN1CCN(CCCn2cccc(O)c2=O)CCN(CC(=O)O)CC1`, the inhibition result in the series with HepG2 [1] is “inactive”. In addition, the pIC50 in the series with HepG2 [2] is 5.35. For the same compound, the “fold change (FC)” value in the series on L02 [3] was 3 - 8. The inhibition at 50 µM in the series on HepG2 [4] is 80%. The Activity entry in the series on L02 [5] is “Non-Toxic”.

Consider `O=C(O)CN(CCN(CC(=O)O)CC(=O)O)CCN(CC(=O)O)CC(=O)O` [PENTETIC ACID], for which the inhibition result in the series with HepG2 [1] was “inactive”. In the series on HepG2 [2], the pIC50 is 4.42. Also, the inhibition at 50 µM in the series with HepG2 [4] was 60%. The Activity entry in the series with L02 [5] is listed as “Non-Toxic”.

With `CC(=O)N(O)CCCCCNC(=O)CCC(=O)N(O)CCCCCNC(=O)CCC(=O)N(O)CCCCCN` [DEFEROXAMINE], the inhibition entry in the series with HepG2 [1] was “inactive”. For the same compound, the negative-log IC50 (pIC50) with HepG2 [2] was less than 4.00. For the same compound, the inhibition at 50 µM in the series with HepG2 [4] is 40%. The Activity entry in the series on L02 [5] is listed as “Non-Toxic”.

Regarding `O=C(O)CN(CCCc1ccc([N+](=O)[O-])cc1)CCN1CCN(CC(=O)O)CCN(CC(=O)O)CC1`, in the series with HepG2 [2], the pIC50 was 5.85. In the series on L02 [3], the “fold change (FC)” value was 3 - 8. Besides, the Activity entry with L02 [5] is “Non-Toxic”.

In the case of `O=C(O)CN(CCN1CCN(CP(=O)(O)O)CCN(CP(=O)(O)O)CC1)CC(=O)O`, the pIC50 with HepG2 [2] is 5.42. Besides, the “fold change (FC)” value in the series on L02 [3] was 3 - 8. Further, the Activity result in the series with L02 [5] is recorded as “Non-Toxic”.

On to `O=C(O)CN1CCN(CCn2cccc(O)c2=O)CCN(CC(=O)O)CC1`, for which the inhibition result with HepG2 [1] is “inactive”. Moreover, in the series with HepG2 [2], the pIC50 is 5.16. For the same compound, the “fold change (FC)” value in the series with L02 [3] is 3 - 8. Further, in the series on HepG2 [4], the inhibition at 50 µM stood at 80%. For the same compound, the Activity result in the series on L02 [5] is listed as “Non-Toxic”.

Regarding `O=C(O)CN1CCN(CC(=O)O)CCN(CC(Cc2ccc([N+](=O)[O-])cc2)N(CC(=O)O)CC(=O)O)CC1` (stereo not given), in the series with HepG2 [2], the negative-log IC50 (pIC50) is 5.09. In addition, in the series on L02 [3], the “fold change (FC)” value was 3 - 8. In the series with L02 [5], the Activity result is “Non-Toxic”.

As to `Nc1ccc(CCCN(CCN2CCN(CC(=O)O)CCN(CC(=O)O)CC2)CC(=O)O)cc1`, in the series with HepG2 [2], the negative logarithm of the IC50 (pIC50) was 5.82. Further, the “fold change (FC)” value with L02 [3] was 3 - 8. In the series with L02 [5], the Activity entry was “Non-Toxic”.
